Test results reported in patent US20240261290A1, “PHARMACEUTICAL COMPOSITION COMPRISING 7-(4-CHLOROBENZYL)-1-(3-HYDROXYPROPYL)-3-METHYL-8-(3-(TRIFLUOROMETHOXY)-PHENOXY)-3,7-DIHYDRO-1H-PURINE-2,6-DIONE” (Boehringer Ingelheim International GmbH, priority 2023, published 2024).

Tests used:
[1] = Aqueous solubility of Compound 1; type: physicochemical; settings: under acidic to neutral conditions
[2] = Lipophilicity (logP) of Compound 1; type: physicochemical

- aqueous solubility [1]: low aqueous solubility
- logP [2]: 5.2
Structure (SMILES): Cn1c(=O)n(CCCO)c(=O)c2c1nc(Oc1cccc(OC(F)(F)F)c1)n2Cc1ccc(Cl)cc1 [Compound 1, 7-(4-chlorobenzyl)-1-(3-hydroxypropyl)-3-methyl-8-(3-(trifluoromethoxy)-phenoxy)-3,7-dihydro-1H-purine-2,6-dione]
